In the test the test system is MV-4-11 cells. Description: Gene expression microarray analysis (Affymetrix PrimeView) and GSEA. It is filed as cell-based, human. Also on record: RFU PODN (11730768_x_at) / Fold change /veh PODN (11730768_x_at) / RFU LINC00158 (11744669_a_at) / Fold change /veh LINC00158 (11744669_a_at) / RFU DUSP10 (11751237_a_at) / Fold change /veh DUSP10 (11751237_a_at) / RFU ID3 (11757404_x_at) / Fold change /veh ID3 (11757404_x_at) / RFU PLEKHG5 (11737974_s_at) / Fold change /veh PLEKHG5 (11737974_s_at) / RFU LRRC4B (11730491_at) / Fold change /veh LRRC4B (11730491_at) / RFU GIMAP4 (11747438_a_at) / Fold change /veh GIMAP4 (11747438_a_at) / RFU KRT8 (11758183_x_at) / Fold change /veh KRT8 (11758183_x_at) / RFU CNN1 (11734310_a_at) / Fold change /veh CNN1 (11734310_a_at) / RFU VPS37D (11726825_at) / Fold change /veh VPS37D (11726825_at) / RFU C10orf10 (11716522_x_at) / Fold change /veh C10orf10 (11716522_x_at) / RFU KIR2DL2 /// KIR2DL4 /// KIR2DL5A /// KIR2DL5B /// KIR2DS1 /// KIR2DS2 /// KIR2DS3 /// KIR2DS4 /// KIR3DL3 /// KIR3DL3 /// KIR3DS1 (11738374_at) / Fold change /veh KIR2DL2 /// KIR2DL4 /// KIR2DL5A /// KIR2DL5B /// KIR2DS1 /// KIR2DS2 /// KIR2DS3 /// KIR2DS4 /// KIR3DL3 /// KIR3DL3 /// KIR3DS1 (11738374_at) / RFU C1QL1 (11718748_at) / Fold change /veh C1QL1 (11718748_at) / RFU TMPRSS4 (11747572_a_at) / Fold change /veh TMPRSS4 (11747572_a_at) / RFU HAMP (11756126_x_at) / Fold change /veh HAMP (11756126_x_at) / RFU RNFT2 (11725882_a_at) / Fold change /veh RNFT2 (11725882_a_at) / RFU NR4A2 (11747474_a_at) / Fold change /veh NR4A2 (11747474_a_at) / RFU ABCC12 (11746883_a_at) / Fold change /veh ABCC12 (11746883_a_at) / RFU TMEM136 (11760407_x_at) / Fold change /veh TMEM136 (11760407_x_at) / RFU CLDN22 /// WWC2 (11732394_at) / Fold change /veh CLDN22 /// WWC2 (11732394_at) / RFU HLA-DPB1 (11760878_x_at) / Fold change /veh HLA-DPB1 (11760878_x_at) / RFU SPINT1 (11716480_a_at) / Fold change /veh SPINT1 (11716480_a_at) / RFU GAP43 (11754022_s_at) / Fold change /veh GAP43 (11754022_s_at) / RFU A4GNT (11735810_at) / Fold change /veh A4GNT (11735810_at) / RFU PRB3 (11715151_x_at) / Fold change /veh PRB3 (11715151_x_at) / RFU TUBB4B (11761932_at) / Fold change /veh TUBB4B (11761932_at) / RFU CAPN14 (11732068_a_at) / Fold change /veh CAPN14 (11732068_a_at) / RFU TMCC2 (11721928_a_at) / Fold change /veh TMCC2 (11721928_a_at) / RFU IRGQ (11745062_a_at) / Fold change /veh IRGQ (11745062_a_at) / RFU FAM174B (11720279_a_at) / Fold change /veh FAM174B (11720279_a_at) / RFU TMPRSS4 (11748680_a_at) / Fold change /veh TMPRSS4 (11748680_a_at) / RFU FAM212B (11763350_a_at) / Fold change /veh FAM212B (11763350_a_at) / RFU PLEKHG5 (11743358_a_at) / Fold change /veh PLEKHG5 (11743358_a_at) / RFU ZSCAN30 (11745921_a_at) / Fold change /veh ZSCAN30 (11745921_a_at) / RFU CMKLR1 (11741424_a_at) / Fold change /veh CMKLR1 (11741424_a_at) / RFU LOC101060620 /// MAPK8IP1 (11723275_at) / Fold change /veh LOC101060620 /// MAPK8IP1 (11723275_at) / RFU SPTSSB (11747773_x_at) / Fold change /veh SPTSSB (11747773_x_at) / RFU PRSS12 (11739890_at) / Fold change /veh PRSS12 (11739890_at) / RFU BIN1 (11741810_x_at) / Fold change /veh BIN1 (11741810_x_at) / RFU WNT11 (11732464_a_at) / Fold change /veh WNT11 (11732464_a_at) / RFU C10orf10 (11716521_a_at) / Fold change /veh C10orf10 (11716521_a_at) / RFU C5orf56 (11738089_at) / Fold change /veh C5orf56 (11738089_at) / RFU CYB561 (11721691_x_at) / Fold change /veh CYB561 (11721691_x_at) / RFU ANKRD19P (11752326_a_at) / Fold change /veh ANKRD19P (11752326_a_at) / RFU OR2T12 /// OR2T33 /// OR2T8 (11738714_s_at) / Fold change /veh OR2T12 /// OR2T33 /// OR2T8 (11738714_s_at) / RFU VCAN (11748164_a_at) / Fold change /veh VCAN (11748164_a_at) / RFU JSRP1 (11732532_at) / Fold change /veh JSRP1 (11732532_at) / RFU KRTAP10-11 (11738290_x_at) / Fold change /veh KRTAP10-11 (11738290_x_at) / RFU MYO3A (11730013_a_at) / Fold change /veh MYO3A (11730013_a_at) / RFU EBF3 (11725865_a_at) / Fold change /veh EBF3 (11725865_a_at) / RFU CAMK2N1 (11719241_x_at) / Fold change /veh CAMK2N1 (11719241_x_at) / RFU C5orf56 (11738088_a_at) / Fold change /veh C5orf56 (11738088_a_at) / RFU OLFML3 (11715873_a_at) / Fold change /veh OLFML3 (11715873_a_at) / RFU LOC100653217 /// NTM (11731650_a_at) / Fold change /veh LOC100653217 /// NTM (11731650_a_at) / RFU MAPK11 (11762145_a_at) / Fold change /veh MAPK11 (11762145_a_at) / RFU FIZ1 (11724087_x_at) / Fold change /veh FIZ1 (11724087_x_at) / RFU OASL (11726364_x_at) / Fold change /veh OASL (11726364_x_at) / RFU SOX15 (11748057_x_at) / Fold change /veh SOX15 (11748057_x_at) / RFU CD79A (11719716_a_at) / Fold change /veh CD79A (11719716_a_at) / RFU HIST1H1D (11736915_at) / Fold change /veh HIST1H1D (11736915_at) / RFU CASKIN2 (11723855_a_at) / Fold change /veh CASKIN2 (11723855_a_at) / RFU LOC730098 (11760151_x_at) / Fold change /veh LOC730098 (11760151_x_at) / RFU OR4N2 (11742367_at) / Fold change /veh OR4N2 (11742367_at) / RFU PRRT2 (11749266_a_at) / Fold change /veh PRRT2 (11749266_a_at) / RFU SNX32 (11753110_a_at) / Fold change /veh SNX32 (11753110_a_at) / RFU CDHR5 (11726645_a_at) / Fold change /veh CDHR5 (11726645_a_at) / RFU RCAN1 (11760418_a_at) / Fold change /veh RCAN1 (11760418_a_at) / RFU FAM167A (11723789_a_at) / Fold change /veh FAM167A (11723789_a_at) / RFU FAM26E (11764081_at) / Fold change /veh FAM26E (11764081_at) / RFU ISYNA1 (11749810_s_at) / Fold change /veh ISYNA1 (11749810_s_at) / RFU ACY1 (11761880_at) / Fold change /veh ACY1 (11761880_at) / RFU 11764098_at / Fold change /veh 11764098_at / RFU SAMD14 (11745864_x_at) / Fold change /veh SAMD14 (11745864_x_at) / RFU NPB (11741838_a_at) / Fold change /veh NPB (11741838_a_at) / RFU TMPRSS6 (11731388_a_at) / Fold change /veh TMPRSS6 (11731388_a_at) / RFU KRTAP10-2 (11738614_at) / Fold change /veh KRTAP10-2 (11738614_at) / RFU ARHGAP8 /// PRR5-ARHGAP8 (11727945_x_at) / Fold change /veh ARHGAP8 /// PRR5-ARHGAP8 (11727945_x_at) / RFU KRTAP5-7 /// NADSYN1 (11734609_at) / Fold change /veh KRTAP5-7 /// NADSYN1 (11734609_at) / RFU RASL12 (11751679_a_at) / Fold change /veh RASL12 (11751679_a_at) / RFU CDKN2B (11736163_a_at) / Fold change /veh CDKN2B (11736163_a_at) / RFU PRF1 (11729649_at) / Fold change /veh PRF1 (11729649_at) / RFU, ZNF638 /// ZNF638-IT1 / Fold change vs veh, ZNF638 /// ZNF638-IT1 / RFU, PANK3 / Fold change vs veh, PANK3 / RFU, SH3YL1 / Fold change vs veh, SH3YL1 / RFU, ZEB2 / Fold change vs veh, ZEB2 / RFU, NRIP1 / Fold change vs veh, NRIP1 / RFU, PTTG1IP / Fold change vs veh, PTTG1IP / RFU, CAPN2 / Fold change vs veh, CAPN2 / RFU, MED14 / Fold change vs veh, MED14 / RFU, SNORA58 / Fold change vs veh, SNORA58 / RFU, C1orf63 / Fold change vs veh, C1orf63 / RFU, LRRFIP1 / Fold change vs veh, LRRFIP1 / RFU, NDUFAF7 / Fold change vs veh, NDUFAF7 / RFU, SLC12A2 / Fold change vs veh, SLC12A2 / RFU, IBTK / Fold change vs veh, IBTK / RFU, ESF1 / Fold change vs veh, ESF1 / Fold change vs veh, TMEM50B / RFU, TAOK1 / Fold change vs veh, TAOK1 / RFU, ACBD3 / Fold change vs veh, ACBD3 / RFU, TMA16 / Fold change vs veh, TMA16 / RFU, RWDD3 / Fold change vs veh, RWDD3 / RFU, BCAT1 / Fold change vs veh, BCAT1 / RFU, EDEM3 / Fold change vs veh, EDEM3 / RFU, TMEM33 / Fold change vs veh, TMEM33 / RFU, WDR75 / Fold change vs veh, WDR75 / RFU, AHCTF1 / Fold change vs veh, AHCTF1 / RFU, TFRC / Fold change vs veh, TFRC / RFU, ZDHHC17 / Fold change vs veh, ZDHHC17 / RFU, NOM1 / Fold change vs veh, NOM1 / RFU, ARL8B / Fold change vs veh, ARL8B / RFU, ZBTB11 / Fold change vs veh, ZBTB11 / RFU, TAMM41 / Fold change vs veh, TAMM41 / RFU, KIAA1704 /// LOC100996395 / Fold change vs veh, KIAA1704 /// LOC100996395 / RFU, ING1 / Fold change vs veh, ING1 / RFU, TRMT61B / Fold change vs veh, TRMT61B / RFU, FUBP3 / Fold change vs veh, FUBP3 / RFU, TP53 / Fold change vs veh, TP53 / RFU, TNKS2 / Fold change vs veh, TNKS2 / RFU, ZFP14 / Fold change vs veh, ZFP14 / RFU, ACTR2 / Fold change vs veh, ACTR2 / RFU, PPP3R1 / Fold change vs veh, PPP3R1 / RFU, PIK3R1 / Fold change vs veh, PIK3R1 / RFU, HNRNPA1 / Fold change vs veh, HNRNPA1 / RFU, RNF170 / Fold change vs veh, RNF170 / RFU, ZNF28 / Fold change vs veh, ZNF28 / RFU, RNGTT / Fold change vs veh, RNGTT / RFU, OGT / Fold change vs veh, OGT / RFU, BRD1 / Fold change vs veh, BRD1 / RFU, MARS / Fold change vs veh, MARS / RFU, ZNF655 / Fold change vs veh, ZNF655 / RFU, FAHD1 / Fold change vs veh, FAHD1 / RFU, BDP1 / Fold change vs veh, BDP1 / RFU, LRRCC1 / Fold change vs veh, LRRCC1 / RFU, ARID1A / Fold change vs veh, ARID1A / RFU, ZNF146 / Fold change vs veh, ZNF146 / RFU, ZNF330 / Fold change vs veh, ZNF330 / RFU, GPN3 / Fold change vs veh, GPN3 / RFU, C9orf123 / Fold change vs veh, C9orf123 / RFU, N4BP2L2 / Fold change vs veh, N4BP2L2 / RFU, ARFIP1 / Fold change vs veh, ARFIP1 / RFU, FAM179B / Fold change vs veh, FAM179B / RFU, BCL10 / Fold change vs veh, BCL10 / RFU, UHRF1BP1L / Fold change vs veh, UHRF1BP1L / RFU, BET1 / Fold change vs veh, BET1 / RFU, CNOT2 / Fold change vs veh, CNOT2 / RFU, ZNF268 / Fold change vs veh, ZNF268 / Fold change vs veh, ZNF507 / RFU, DGCR2 / Fold change vs veh, DGCR2 / RFU, WDSUB1 / Fold change vs veh, WDSUB1 / Fold change vs veh, HSP90B1 /// MIR3652 / RFU, ADSS / Fold change vs veh, ADSS / RFU, GK / Fold change vs veh, GK / RFU, ZNF148 / Fold change vs veh, ZNF148 / RFU, TAF9 / Fold change vs veh, TAF9 / RFU, SLC1A5 / Fold change vs veh, SLC1A5 / RFU, SLMO2 / Fold change vs veh, SLMO2 / RFU, ABCC4 / Fold change vs veh, ABCC4 / RFU, LOC101060439 /// RAP1B / Fold change vs veh, LOC101060439 /// RAP1B / RFU, RFX7 / Fold change vs veh, RFX7 / RFU, GTPBP10 / Fold change vs veh, GTPBP10 / RFU, CNEP1R1 / Fold change vs veh, CNEP1R1 / RFU, BIVM-ERCC5 /// ERCC5 / Fold change vs veh, BIVM-ERCC5 /// ERCC5 / RFU, ILF3 / Fold change vs veh, ILF3 / RFU 11762660_at / Fold change /veh 11762660_at / RFU VCAN (11757783_s_at) / Fold change /veh VCAN (11757783_s_at) / RFU DDX43 (11728927_at) / Fold change /veh DDX43 (11728927_at) / RFU KRT8 (11758188_x_at) / Fold change /veh KRT8 (11758188_x_at) / RFU NKD1 (11759106_at) / Fold change /veh NKD1 (11759106_at) / RFU SRD5A1 (11742802_a_at) / Fold change /veh SRD5A1 (11742802_a_at) / RFU TPSAB1 /// TPSB2 (11721975_s_at) / Fold change /veh TPSAB1 /// TPSB2 (11721975_s_at) / RFU GSTM3 (11746129_a_at) / Fold change /veh GSTM3 (11746129_a_at) / RFU IL23R (11737362_x_at) / Fold change /veh IL23R (11737362_x_at) / RFU TMEM51 (11727254_a_at) / Fold change /veh TMEM51 (11727254_a_at) / RFU PIWIL2 (11732686_x_at) / Fold change /veh PIWIL2 (11732686_x_at) / RFU ORM1 (11744905_x_at) / Fold change /veh ORM1 (11744905_x_at) / RFU CCDC152 (11743942_at) / Fold change /veh CCDC152 (11743942_at) / RFU ECM1 (11717891_a_at) / Fold change /veh ECM1 (11717891_a_at) / RFU IL23R (11748794_a_at) / Fold change /veh IL23R (11748794_a_at) / RFU TNFAIP8L3 (11732012_x_at) / Fold change /veh TNFAIP8L3 (11732012_x_at) / RFU MBOAT4 (11741988_at) / Fold change /veh MBOAT4 (11741988_at) / RFU 11764193_at / Fold change /veh 11764193_at / RFU TMEM53 (11763286_at) / Fold change /veh TMEM53 (11763286_at) / RFU MAGEB2 (11727129_at) / Fold change /veh MAGEB2 (11727129_at) / RFU TMEM200A (11744735_a_at) / Fold change /veh TMEM200A (11744735_a_at) / RFU CCDC152 (11751479_a_at) / Fold change /veh CCDC152 (11751479_a_at) / RFU FAM211A (11726209_a_at) / Fold change /veh FAM211A (11726209_a_at) / RFU RGS16 (11746705_a_at) / Fold change /veh RGS16 (11746705_a_at) / RFU VCAN (11755009_s_at) / Fold change /veh VCAN (11755009_s_at) / RFU RHOB (11743442_s_at) / Fold change /veh RHOB (11743442_s_at) / RFU RGS16 (11720943_a_at) / Fold change /veh RGS16 (11720943_a_at) / RFU RGS16 (11720944_at) / Fold change /veh RGS16 (11720944_at) / RFU, VPS4B / Fold change vs veh, VPS4B / RFU, CREB1 / Fold change vs veh, CREB1 / RFU, DNAJC13 / Fold change vs veh, DNAJC13 / RFU, GNAQ / Fold change vs veh, GNAQ / RFU, CDK5R1 / Fold change vs veh, CDK5R1 / RFU, ZRANB3 / Fold change vs veh, ZRANB3 / RFU, CUL4A / Fold change vs veh, CUL4A / RFU, CCNY / Fold change vs veh, CCNY / RFU, UFL1 / Fold change vs veh, UFL1 / RFU, COG3 / Fold change vs veh, COG3 / RFU, DIAPH2 / Fold change vs veh, DIAPH2 / RFU, SKA2 / Fold change vs veh, SKA2 / RFU, AFF3 / Fold change vs veh, AFF3 / RFU, LMF1 / Fold change vs veh, LMF1 / RFU, IPO11 / Fold change vs veh, IPO11 / RFU, DFFB / Fold change vs veh, DFFB / RFU, FOXP1 / Fold change vs veh, FOXP1 / RFU, CARD8 / Fold change vs veh, CARD8 / RFU, STRN3 / Fold change vs veh, STRN3 / RFU, ADK / Fold change vs veh, ADK / RFU, RASSF2 / Fold change vs veh, RASSF2 / RFU, WIPF1 / Fold change vs veh, WIPF1 / RFU, LARP1B / Fold change vs veh, LARP1B / RFU, RASA1 / Fold change vs veh, RASA1 / RFU, RB1 / Fold change vs veh, RB1 / RFU, PPFIA1 / Fold change vs veh, PPFIA1 / RFU, MAT2A / Fold change vs veh, MAT2A / RFU, CCT5 / Fold change vs veh, CCT5 / RFU, WDR92 / Fold change vs veh, WDR92 / RFU, CUX1 / Fold change vs veh, CUX1 / RFU, TTC7A / Fold change vs veh, TTC7A / RFU, TMEM135 / Fold change vs veh, TMEM135 / RFU, DEPTOR / Fold change vs veh, DEPTOR / RFU, CPM / Fold change vs veh, CPM / RFU, DNAJB6 / Fold change vs veh, DNAJB6 / RFU, CACNA2D3 / Fold change vs veh, CACNA2D3 / RFU, DTX4 / Fold change vs veh, DTX4 / RFU, TFCP2 / Fold change vs veh, TFCP2 / RFU, GMCL1 /// GMCL1P1 / Fold change vs veh, GMCL1 /// GMCL1P1 / RFU, AEBP2 / Fold change vs veh, AEBP2 / RFU, SNHG1 /// SNORD22 /// SNORD25 /// SNORD26 /// SNORD27 /// SNORD28 /// SNORD29 /// SNORD31 / Fold change vs veh, SNHG1 /// SNORD22 /// SNORD25 /// SNORD26 /// SNORD27 /// SNORD28 /// SNORD29 /// SNORD31 / Fold change (Aza/veh), C12orf56 (ProbeSet 11735607_a_at) / Fold change (ACY-1035/veh), C12orf56 (ProbeSet 11735607_a_at) / Fold change (Aza/veh), FGFR1OP (ProbeSet 11751329_s_at) / Fold change (ACY-1035/veh), FGFR1OP (ProbeSet 11751329_s_at) / Fold change (Aza/veh), VPS36 (ProbeSet 11739960_a_at) / Fold change (ACY-1035/veh), VPS36 (ProbeSet 11739960_a_at) / RFU SYPL1 (11715823_x_at) / Fold change /veh SYPL1 (11715823_x_at) / RFU IGFBP7 (11715501_s_at) / Fold change /veh IGFBP7 (11715501_s_at) / RFU REEP3 (11722064_at) / Fold change /veh REEP3 (11722064_at) / RFU IGLL1 (11728026_x_at) / Fold change /veh IGLL1 (11728026_x_at): dose or concentration left out as unconfirmed. To be noted: ProbeSet 11758779_at; LIST B.

Each structure is given as a SMILES string.

As to `Nc1ccc(-c2cccs2)cc1NC(=O)c1ccc2c(c1)cc(C1CC1)n2CCN1CCOCC1` [ACY-1035], the “Fold change vs veh, TMEM50B” value amounted to 0.95.

(Values after article PMC5218480 (PLoS ONE, 2017).)
